Columns and labels:
Format in all cases: in vivo
[1] = test system: soybean (Glycine max L., var. Pella 86, SOY); test: Pre-emerge test, crop damage soybean
Source text: (§1) A standard greenhouse herbicide activity screening system was used to evaluate the herbicidal efficacy and crop safety of these test compounds. Seven broadleaf weed species including redroot pigweed (Amaranthus retroflexus, AMR), velvetleaf (Abutilon theophrasti, ABT), sicklepod (Cassia obtusifolia, CAO), ivyleaf morningglory (Ipomoea hederacea, IPH), lambsquarters (Chenopodium album, CHA), common ragweed (Ambrosia artemisiifolia L., AML), and cocklebur (Xanthium strumariunt, XAS) were used as test species. Four grass weed species including green foxtail (Setaria viridis, SEV), barnyardgrass (Echinachloa crus-galli, ECC), johnsongrass (Sorghum halepense, SOH), and large crabgrass (Digitaria sanguinalis, DIS) were also used. In addition, four crop species, field corn (Zea mays L., var. Dekalb 535, CORN), soybean (Glycine max L., var. Pella 86, SOY), upland rice (Oryza sp., var.Tebonnet, RICE), and wheat (Triticum aestivum) were included all plants were grown in 10 cm square plastic pots which were filled with a sandy loam soil mix.
(§2) For pre-emerge tests, seeds were planted one day prior to application of the test compounds. All test compounds were dissolved in acetone and applied to the test pots in a volume of 187 l/ha. Test materials were applied at rates ranging from 8 g ai/ha to 1000 g ai/ha using a track sprayer equipped with a TJ8001E even flow flat fan spray nozzle. This application simulates a typical commercial field herbicide application.
(§3) At 14 days after application of the test materials, phytotoxicity ratings were recorded. A rating scale of 0-100 was used for both pre and post emerge tests as previously described in Research Methods in Weed Science, 2nd edition, B, Truelove, Ed., Southern Weed Science Society, Auburn University, Auburn, Ala., 1977. Briefly, “0” corresponds to no damage and “100” corresponds to complete death of all plants in the test unit. This scale was used both to determine efficacy against weed species and damage to crop species. Herbicide activity data for various compounds of this invention, which are shown by compound No. in Tables 1-3, are shown in Tables 5 and 6.

[2] = test system: wheat (Triticum aestivum); test: Post-emerge test, crop damage wheat
Source text: as §1, §2
(§4) For post-emerge tests, seeds were planted 8-21 days prior to the test to allow emergence and good foliage development prior to application of the test substances. At the time of the post-emerge application, plants of all species were usually at the 2-3 leaf stage of development. In the postemerge test, a commercial non-ionic surfactant was also included (0.25% v/v) to enhance wetting of the leaf surfaces of target plants.
as §3

[3] = test system: redroot pigweed (Amaranthus retroflexus, AMR); test: Post-emerge test, redroot pigweed; details: 250 g ai/ha, 14 days after application, rating scale 0-100 (0 no damage, 100 complete death)
Source text: as §1, §2, §4, §3

[4] = test system: velvetleaf (Abutilon theophrasti, ABT); test: Pre-emerge test, velvetleaf; details: 250 g ai/ha, 14 days after application, rating scale 0-100 (0 no damage, 100 complete death)
Source text: as §1, §2, §3

[5] = test system: lambsquarters (Chenopodium album, CHA); test: Post-emerge test, lambsquarters; details: 250 g ai/ha, 14 days after application, rating scale 0-100 (0 no damage, 100 complete death)
Source text: as §1, §2, §4, §3

[6] = test system: ivyleaf morningglory (Ipomoea hederacea, IPH); test: Pre-emerge test, ivyleaf morningglory; details: 250 g ai/ha, 14 days after application, rating scale 0-100 (0 no damage, 100 complete death)
Source text: as §1, §2, §3

[7] = test system: barnyardgrass (Echinachloa crus-galli, ECC); test: Pre-emerge test, barnyardgrass; details: 250 g ai/ha, 14 days after application, rating scale 0-100 (0 no damage, 100 complete death)
Source text: as §1, §2, §3

[8] = test system: large crabgrass (Digitaria sanguinalis, DIS); test: Post-emerge test, large crabgrass; details: 250 g ai/ha, 14 days after application, rating scale 0-100 (0 no damage, 100 complete death)
Source text: as §1, §2, §4, §3

[9] = test system: common ragweed (Ambrosia artemisiifolia L., AML); test: Post-emerge test, common ragweed; details: 250 g ai/ha, 14 days after application, rating scale 0-100 (0 no damage, 100 complete death)
Source text: as §1, §2, §4, §3

[10] = test system: soybean (Glycine max L., var. Pella 86, SOY); test: Post-emerge test, crop damage soybean
Source text: as §1, §2, §4, §3

[11] = test system: field corn (Zea mays L., var. Dekalb 535, CORN); test: Pre-emerge test, crop damage field corn
Source text: as §1, §2, §3

[12] = test system: green foxtail (Setaria viridis, SEV); test: Post-emerge test, green foxtail; details: 250 g ai/ha, 14 days after application, rating scale 0-100 (0 no damage, 100 complete death)
Source text: as §1, §2, §4, §3

[13] = test system: cocklebur (Xanthium strumariunt, XAS); test: Pre-emerge test, cocklebur; details: 250 g ai/ha, 14 days after application, rating scale 0-100 (0 no damage, 100 complete death)
Source text: as §1, §2, §3

[14] = test system: upland rice (Oryza sp., var.Tebonnet, RICE); test: Pre-emerge test, crop damage upland rice
Source text: as §1, §2, §3

[15] = test system: large crabgrass (Digitaria sanguinalis, DIS); test: Pre-emerge test, large crabgrass; details: 250 g ai/ha, 14 days after application, rating scale 0-100 (0 no damage, 100 complete death)
Source text: as §1, §2, §3

[16] = test system: upland rice (Oryza sp., var.Tebonnet, RICE); test: Post-emerge test, crop damage upland rice
Source text: as §1, §2, §4, §3

[17] = test system: cocklebur (Xanthium strumariunt, XAS); test: Post-emerge test, cocklebur; details: 250 g ai/ha, 14 days after application, rating scale 0-100 (0 no damage, 100 complete death)
Source text: as §1, §2, §4, §3

[18] = test system: johnsongrass (Sorghum halepense, SOH); test: Post-emerge test, johnsongrass; details: 250 g ai/ha, 14 days after application, rating scale 0-100 (0 no damage, 100 complete death)
Source text: as §1, §2, §4, §3

[19] = test system: ivyleaf morningglory (Ipomoea hederacea, IPH); test: Post-emerge test, ivyleaf morningglory; details: 250 g ai/ha, 14 days after application, rating scale 0-100 (0 no damage, 100 complete death)
Source text: as §1, §2, §4, §3

[20] = test system: velvetleaf (Abutilon theophrasti, ABT); test: Post-emerge test, velvetleaf; details: 250 g ai/ha, 14 days after application, rating scale 0-100 (0 no damage, 100 complete death)
Source text: as §1, §2, §4, §3

[21] = test system: johnsongrass (Sorghum halepense, SOH); test: Pre-emerge test, johnsongrass; details: 250 g ai/ha, 14 days after application, rating scale 0-100 (0 no damage, 100 complete death)
Source text: as §1, §2, §3

[22] = test system: lambsquarters (Chenopodium album, CHA); test: Pre-emerge test, lambsquarters; details: 250 g ai/ha, 14 days after application, rating scale 0-100 (0 no damage, 100 complete death)
Source text: as §1, §2, §3

[23] = test system: field corn (Zea mays L., var. Dekalb 535, CORN); test: Post-emerge test, crop damage field corn
Source text: as §1, §2, §4, §3

[24] = test system: green foxtail (Setaria viridis, SEV); test: Pre-emerge test, green foxtail; details: 250 g ai/ha, 14 days after application, rating scale 0-100 (0 no damage, 100 complete death)
Source text: as §1, §2, §3

[25] = test system: redroot pigweed (Amaranthus retroflexus, AMR); test: Pre-emerge test, redroot pigweed; details: 250 g ai/ha, 14 days after application, rating scale 0-100 (0 no damage, 100 complete death)
Source text: as §1, §2, §3

[26] = test system: sicklepod (Cassia obtusifolia, CAO); test: Pre-emerge test, sicklepod; details: 250 g ai/ha, 14 days after application, rating scale 0-100 (0 no damage, 100 complete death)
Source text: as §1, §2, §3

[27] = test system: sicklepod (Cassia obtusifolia, CAO); test: Post-emerge test, sicklepod; details: 250 g ai/ha, 14 days after application, rating scale 0-100 (0 no damage, 100 complete death)
Source text: as §1, §2, §4, §3

[28] = test system: barnyardgrass (Echinachloa crus-galli, ECC); test: Post-emerge test, barnyardgrass; details: 250 g ai/ha, 14 days after application, rating scale 0-100 (0 no damage, 100 complete death)
Source text: as §1, §2, §4, §3

[29] = test system: common ragweed (Ambrosia artemisiifolia L., AML); test: Pre-emerge test, common ragweed; details: 250 g ai/ha, 14 days after application, rating scale 0-100 (0 no damage, 100 complete death)
Source text: as §1, §2, §3

[30] = test system: wheat (Triticum aestivum); test: Pre-emerge test, crop damage wheat
Source text: as §1, §2, §3

[31] = var. Pella 86, Glycine max (soybean), in vivo, 14 days
[32] = Triticum aestivum (wheat), in vivo, 14 days
[33] = var. Dekalb 535, Zea mays (field corn), in vivo, 14 days
[34] = var. Tebonnet, Oryza sp. (upland rice), in vivo, 14 days
[35] = pre-emerge, 250 g ai/ha, 14 days after application, rating scale 0-100 (0 no damage, 100 complete death)
[36] = post-emerge, 250 g ai/ha, 14 days after application, rating scale 0-100 (0 no damage, 100 complete death)

Structure (SMILES)	Post-emerge Herbicidal Activity AMR (phytotoxicity rating) [3]	Pre-emerge Herbicidal Activity ABT (phytotoxicity rating) [4]	Post-emerge Herbicidal Activity CHA (phytotoxicity rating) [5]	Pre-emerge Herbicidal Activity IPH (phytotoxicity rating) [6]	Pre-emerge Herbicidal Activity ECC (phytotoxicity rating) [7]	Post-emerge Herbicidal Activity DIS (phytotoxicity rating) [8]	Post-emerge Herbicidal Activity AML (phytotoxicity rating) [9]	Post-emerge Herbicidal Activity SEV (phytotoxicity rating) [12]	Pre-emerge Herbicidal Activity XAS (phytotoxicity rating) [13]	Pre-emerge Herbicidal Activity DIS (phytotoxicity rating) [15]	Post-emerge Herbicidal Activity XAS (phytotoxicity rating) [17]	Post-emerge Herbicidal Activity SOH (phytotoxicity rating) [18]	Post-emerge Herbicidal Activity IPH (phytotoxicity rating) [19]	Post-emerge Herbicidal Activity ABT (phytotoxicity rating) [20]	Pre-emerge Herbicidal Activity SOH (phytotoxicity rating) [21]	Pre-emerge Herbicidal Activity CHA (phytotoxicity rating) [22]	Pre-emerge Herbicidal Activity SEV (phytotoxicity rating) [24]	Pre-emerge Herbicidal Activity AMR (phytotoxicity rating) [25]	Pre-emerge Herbicidal Activity CAO (phytotoxicity rating) [26]	Post-emerge Herbicidal Activity CAO (phytotoxicity rating) [27]	other results
C[C@H]1Oc2cc(F)c(-c3nn(C)c(OC(F)F)c3Cl)c3c2N(CC(=O)N3)C1=O [1-55, 8-[-4-Chloro-5-(difluoromethoxy)-1-methyl-1H-pyrazol-3-yl)-9-fluoro-2-R-methyl-5H-pyrazino[1,2,3-de]-1,4-benzoxazine-3,6(2H, 7H)-dione]	100	99	100	100	100	35	85	99	95	100	100	50	100	100	100	100	100	100	100	99	Pre-emerge crop damage SOY (phytotoxicity rating) [1, 31]: 60; Post-emerge crop damage WHEAT (phytotoxicity rating) [2, 32]: 50; Post-emerge crop damage SOY (phytotoxicity rating) [10, 31]: 75; Pre-emerge crop damage CORN (phytotoxicity rating) [11, 33]: 20; Pre-emerge crop damage RICE (phytotoxicity rating) [14, 34]: 40; Post-emerge crop damage RICE (phytotoxicity rating) [16, 34]: 75; Post-emerge crop damage CORN (phytotoxicity rating) [23, 33]: 15; Post-emerge Herbicidal Activity ECC (phytotoxicity rating) [28]: 95; Pre-emerge Herbicidal Activity AML (phytotoxicity rating) [29]: 100; Pre-emerge crop damage WHEAT (phytotoxicity rating) [30, 32]: 3
CCC1C(=O)Nc2c(-c3nn(C)c(OC(F)F)c3Cl)c(F)cc3c2N1C(=O)C(C)(C)O3 (stereo not drawn) [1-61]	75	100	99	98	99	0	60	85	60	98	90	20	100	98	100	100	100	100	65	30	Pre-emerge crop damage SOY (phytotoxicity rating) [1, 35]: 25; Post-emerge crop damage WHEAT (phytotoxicity rating) [2, 36]: 30; Post-emerge crop damage SOY (phytotoxicity rating) [10, 36]: 25; Pre-emerge crop damage CORN (phytotoxicity rating) [11, 35]: 0; Pre-emerge crop damage RICE (phytotoxicity rating) [14, 35]: 10; Post-emerge crop damage RICE (phytotoxicity rating) [16, 36]: 30; Post-emerge crop damage CORN (phytotoxicity rating) [23, 36]: 3; Post-emerge Herbicidal Activity ECC (phytotoxicity rating) [28]: 35; Pre-emerge Herbicidal Activity AML (phytotoxicity rating) [29]: 80; Pre-emerge crop damage WHEAT (phytotoxicity rating) [30, 35]: 15
Cn1nc(-c2c(F)cc3c4c2NC(=O)CN4C(=O)C(C)(C)O3)c(Cl)c1OC(F)F [1-59]	100	100	100	85	99	99	80	99	60	99	100	65	100	100	100	100	100	100	99	70	Pre-emerge crop damage SOY (phytotoxicity rating) [1, 35]: 15; Post-emerge crop damage WHEAT (phytotoxicity rating) [2, 36]: 35; Post-emerge crop damage SOY (phytotoxicity rating) [10, 36]: 45; Pre-emerge crop damage CORN (phytotoxicity rating) [11, 35]: 40; Pre-emerge crop damage RICE (phytotoxicity rating) [14, 35]: 50; Post-emerge crop damage RICE (phytotoxicity rating) [16, 36]: 55; Post-emerge crop damage CORN (phytotoxicity rating) [23, 36]: 10; Post-emerge Herbicidal Activity ECC (phytotoxicity rating) [28]: 99; Pre-emerge Herbicidal Activity AML (phytotoxicity rating) [29]: 100; Pre-emerge crop damage WHEAT (phytotoxicity rating) [30, 35]: 45
